Where a name gives a salt, the structure may show the parent alone.
Each compound was assayed against PARP-1 (poly[ADP-ribose] polymerase 1) enzyme (Homo sapiens (Human), UniProt P09874) (assay: PARP-1 (poly[ADP-ribose] polymerase 1) enzyme inhibitory ability, Trevigen assay kit). Settings: 1 nM compound; read-out: PAR P-1 Inhibitory ability at 1 nM.
Assay type: biochemical
In short: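 After the 1 hour PARP reaction, wells were washed with PBS containing 0.1% triton X-100 and then PBS. Strep-HRP (50 μL) was bound for 1 hour, wells washed again, and 50 μL of TACS-sapphire substrate developed 15 minutes in the dark. Reactions were stopped with 50 μL of 5% phosphoric acid and absorbance read at 450 nm on a Victor3 reader.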

Chain of PARP-1 (poly[ADP-ribose] polymerase 1) enzyme (P09874 whole entry): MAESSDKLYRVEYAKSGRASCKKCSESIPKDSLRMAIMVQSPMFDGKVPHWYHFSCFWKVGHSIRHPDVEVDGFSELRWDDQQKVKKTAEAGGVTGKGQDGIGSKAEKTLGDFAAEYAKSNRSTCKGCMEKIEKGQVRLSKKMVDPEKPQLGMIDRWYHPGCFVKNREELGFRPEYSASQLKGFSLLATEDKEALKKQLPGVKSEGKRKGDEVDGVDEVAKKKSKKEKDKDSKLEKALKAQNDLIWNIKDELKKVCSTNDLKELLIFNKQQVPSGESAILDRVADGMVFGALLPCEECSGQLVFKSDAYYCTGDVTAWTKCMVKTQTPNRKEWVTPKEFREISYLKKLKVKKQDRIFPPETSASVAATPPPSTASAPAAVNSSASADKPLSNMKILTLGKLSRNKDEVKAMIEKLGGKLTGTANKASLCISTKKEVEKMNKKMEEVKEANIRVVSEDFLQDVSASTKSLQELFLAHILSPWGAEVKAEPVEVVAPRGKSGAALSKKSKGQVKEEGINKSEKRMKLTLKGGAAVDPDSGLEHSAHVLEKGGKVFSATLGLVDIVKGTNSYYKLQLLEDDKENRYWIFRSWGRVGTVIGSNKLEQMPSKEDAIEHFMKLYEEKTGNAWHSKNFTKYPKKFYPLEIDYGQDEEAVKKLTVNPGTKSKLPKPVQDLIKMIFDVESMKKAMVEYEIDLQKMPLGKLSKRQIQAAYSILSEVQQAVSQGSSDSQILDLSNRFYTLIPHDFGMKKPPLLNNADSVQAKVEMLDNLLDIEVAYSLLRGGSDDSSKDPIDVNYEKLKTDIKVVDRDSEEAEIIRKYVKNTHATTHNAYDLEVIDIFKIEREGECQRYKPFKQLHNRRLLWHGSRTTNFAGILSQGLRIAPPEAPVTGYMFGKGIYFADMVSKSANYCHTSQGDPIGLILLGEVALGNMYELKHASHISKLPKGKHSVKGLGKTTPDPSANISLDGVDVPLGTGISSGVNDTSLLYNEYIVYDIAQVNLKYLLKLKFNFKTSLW

SMILES | inhibition at 0.001 µM [%]
Cc1cc(F)cc2c(=O)[nH]c(CCC(=O)N3CCN(c4cc(F)ccc4C#N)CC3)cc12 [Example 157, 4-fluoro-2-(4-(3-(7-fluoro-5-methyl-1-oxo-1,2-dihydroisoquinolin-3-yl)propanoyl)piperazin-1-yl)benzonitrile] | < 50
N#Cc1ccc(N2CCN(C(=O)CCc3cc4cccc(F)c4c(=O)[nH]3)CC2)cc1 [Example 68, 4-(4-(3-(8-fluoro-1-oxo-1,2-dihydroisoquinolin-3-yl)propanoyl)piperazin-1-yl)benzonitrile] | < 50
Cc1ccc(F)c2c(=O)[nH]c(CCC(=O)N3CC=C(c4ccc(F)c(C#N)c4)CC3)cc12 [Example 139, 2-fluoro-5-(1-(3-(8-fluoro-5-methyl-1-oxo-1,2-dihydroisoquinolin-3-yl)propanoyl)-1,2,3,6-tetrahydropyridin-4-yl)benzonitrile] | < 50
O=C(CCc1cc2cccc(F)c2c(=O)[nH]1)N1CCN(c2ccc(F)cc2F)CC1 [Example 78, 3-(3-(4-(2,4-difluorophenyl)piperazin-1-yl)-3-oxopropyl)-8-fluoroisoquinolin-1(2H)-one] | < 50
Cc1cc(F)cc2c(=O)[nH]c(CCC(=O)N3CCC(Nc4ccc(C(F)(F)F)cc4)CC3)cc12 [Example 265, 7-fluoro-5-methyl-3-(3-oxo-3-(4-((4-(trifluoromethyl)phenyl)amino)piperidin-1-yl)propyl)isoquinolin-1(2H)-one] | < 50
N#Cc1ccc(OC2CCN(CCCc3cc4cccc(F)c4c(=O)[nH]3)CC2)cc1 [Example 254, 4-((1-(3-(8-fluoro-1-oxo-1,2-dihydroisoquinolin-3-yl)propyl)piperidin-4-yl)oxy)benzonitrile] | < 50
Cc1ccc(F)c2c(=O)[nH]c(CCCN3CCN(c4ccccn4)CC3)cc12 [Example 24, 8-fluoro-5-methyl-3-(3-(4-(pyridin-2-yl)piperazin-1-yl)propyl)isoquinolin-1(2H)-one] | < 50
Cc1ccc(F)c2c(=O)[nH]c(CCC(=O)N3CCN(C(=O)C4CCCN4)CC3)cc12 (stereo not shown) [Example 196, hydrochloride] | < 50
Cc1ccc(F)c2c(=O)[nH]c(CCC(=O)N3CC=C(c4ccc(F)cn4)CC3)cc12 [Example 130, 8-fluoro-3-(3-(5-fluoro-3′,6′-dihydro-[2,4′-bipyridine]-1′(2′H)-yl)-3-oxopropyl)-5-methylisoquinolin-1(2H)-one] | < 50
N#Cc1ccc(N2CC3CCC(C2)N3CCCc2cc3ccc(F)cc3c(=O)[nH]2)nc1 [Example 204, 6-(8-(3-(7-fluoro-1-oxo-1,2-dihydroisoquinolin-3-yl)propyl)-3,8-diazabicyclo[3.2.1]octan-3-yl)nicotinonitrile] | 50 to 80
Cc1ccc(F)c2c(=O)[nH]c(CCCN3CC=C(c4ccc(C#N)cn4)CC3)cc12 [Example 57, 1′-(3-(8-fluoro-5-methyl-1-oxo-1,2-dihydroisoquinolin-3-yl)propyl)-1′,2′,3′,6′-tetrahydro-[2,4′-bipyridine]-5-carbonitrile] | 50 to 80
O=C(CCc1cc2ccc(F)cc2c(=O)[nH]1)N1CC=C(c2ccc(F)cc2F)CC1 [Example 113, 3-(3-(4-(2,4-difluorophenyl)-3,6-dihydropyridin-1(2H)-yl)-3-oxopropyl)-7-fluoroisoquinolin-1(2H)-one] | < 50
Cc1ccc(F)c2c(=O)[nH]c(CCC(=O)N3CCN(c4ccc(C#N)cc4)CC3)cc12 [Example 122, 4-(4-(3-(8-fluoro-5-methyl-1-oxo-1,2-dihydroisoquinolin-3-yl)propanoyl)piperazin-1-yl)benzonitrile] | < 50
N#Cc1ccc(N2CCN(CCCc3cc4cccc(F)c4c(=O)[nH]3)CC2)cn1 [Example 2, 5-(4-(3-(8-fluoro-1-oxo-1,2-dihydroisoquinolin-3-yl)propyl)piperazin-1-yl)picolinonitrile] | < 50
N#Cc1ccc(N2CC3CCC(C2)N3C(=O)CCc2cc3cccc(F)c3c(=O)[nH]2)nc1 [Example 206, 6-(8-(3-(8-fluoro-1-oxo-1,2-dihydroisoquinolin-3-yl)propanoyl)-3,8-diazabicyclo[3.2.1]octan-3-yl)nicotinonitrile] | < 50
O=c1[nH]c(CCCN2CCN(c3cccc(Cl)c3)CC2)cc2ccc(F)cc12 [Example 17, 3-(3-(4-(3-chlorophenyl)piperazin-1-yl)propyl)-7-fluoroisoquinolin-1(2H)-one] | < 50
O=C(CCc1cc2ccc(F)cc2c(=O)[nH]1)N1CC=C(c2ccc(F)cc2)CC1 [Example 104, 7-fluoro-3-(3-(4-(4-fluorophenyl)-3,6-dihydropyridin-1(2H)-yl)-3-oxopropyl)isoquinolin-1(2H)-one] | < 50
N#Cc1ccc(N2CCN(CCCc3cc4cccc(F)c4c(=O)[nH]3)CC2)cc1F [Example 5, 2-fluoro-4-(4-(3-(8-fluoro-1-oxo-1,2-dihydroisoquinolin-3-yl)propyl)piperazin-1-yl)benzonitrile] | < 50
Cc1ccc(F)c2c(=O)[nH]c(CCCN3C4CCC3CN(c3ccc(Cl)cc3)C4)cc12 [Example 201, 3-(3-(3-(4-chlorophenyl)-3,8-diazabicyclo[3.2.1]octan-8-yl)propyl)-8-fluoro-5-methylisoquinolin-1(2H)-one] | < 50
Cc1ccc(F)c2c(=O)[nH]c(CCCN3CC=C(c4ccc(F)cc4)CC3)cc12 [Example 53, 8-fluoro-3-(3-(4-(4-fluorophenyl)-3,6-dihydropyridin-1(2H)-yl)propyl)-5-methylisoquinolin-1(2H)-one] | < 50
Cc1cc(F)cc2c(=O)[nH]c(CCC(=O)N3CCN(c4cc(C#N)ccc4F)CC3)cc12 [Example 156, 4-fluoro-3-(4-(3-(7-fluoro-5-methyl-1-oxo-1,2-dihydroisoquinolin-3-yl)propanoyl)piperazin-1-yl)benzonitrile] | < 50
O=C(CCc1cc2ncccc2c(=O)[nH]1)N1CC=C(c2ccc(F)cc2)CC1 [Example 244, 7-(3-(4-(4-fluorophenyl)-3,6-dihydropyridin-1(2H)-yl)-3-oxopropyl)-1,6-naphthyridin-5(6H)-one] | < 50
Cc1ccc(F)c2c(=O)[nH]c(CCC(=O)N3CCC(Nc4ccc(Cl)cc4)CC3)cc12 [Example 264, 3-(3-(4-((4-chlorophenyl)amino)piperidin-1-yl)-3-oxopropyl)-8-fluoro-5-methylisoquinolin-1(2H)-one] | < 50
Cc1cc(F)cc2c(=O)[nH]c(CCC(=O)N3CCN(C(=O)C4CCC4)CC3)cc12 [Example 181, 3-(3-(4-(cyclobutanecarbonyl)piperazin-1-yl)-3-oxopropyl)-7-fluoro-5-methylisoquinolin-1(2H)-one] | < 50
Cc1ccc(F)c2c(=O)[nH]c(CCC(=O)N3CCN(c4ccc(F)cc4F)CC3)cc12 [Example 132, 3-(3-(4-(2,4-difluorophenyl)piperazin-1-yl)-3-oxopropyl)-8-fluoro-5-methylisoquinolin-1(2H)-one] | < 50
Cc1cc(F)cc2c(=O)[nH]c(CCC(=O)N3CCC(Nc4ccc(Cl)cc4)CC3)cc12 [Example 263, 3-(3-(4-((4-chlorophenyl)amino)piperidin-1-yl)-3-oxopropyl)-7-fluoro-5-methylisoquinolin-1(2H)-one] | < 50

Same assay, conditions: PARP-1 enzyme activity

SMILES | IC50 [nM]
N#Cc1ccc(N2CCN(C(=O)CCc3cc4cccc(F)c4c(=O)[nH]3)CC2)cc1 [Example 68, 4-(4-(3-(8-fluoro-1-oxo-1,2-dihydroisoquinolin-3-yl)propanoyl)piperazin-1-yl)benzonitrile] | 1.9
Cc1ccc(F)c2c(=O)[nH]c(CCCN3CC=C(c4ccc(C#N)cn4)CC3)cc12 [Example 57, 1′-(3-(8-fluoro-5-methyl-1-oxo-1,2-dihydroisoquinolin-3-yl)propyl)-1′,2′,3′,6′-tetrahydro-[2,4′-bipyridine]-5-carbonitrile] | 0.91
